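Tested at 5 concentrations; 48 h exposure; 96-well plates; endpoints linearly interpolated, else capped at highest concentration. Definition used: TGI = concentration required for complete inhibition of growth.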 Where only a bound is given, the exact number is not on record here.

The results in this text go back to PubChem BioAssay (NCI).

Some test systems named below: OVCAR-8 ovarian; NCI-H460 lung; SW-620 colon; NCI-H226 lung; SK-MEL-5 melanoma; EKVX NSCLC; SF-295 CNS; A549 NSCLC; IGROV1 ovarian; PC-3 prostate; U251 CNS; MDA-N; NCI-H522 lung; MDA-MB-435; K-562 leukemia; MCF7 breast.
What all share (assay): NCI tumour cell line growth inhibition, 48 h

Regarding `CC(C)(C)c1cc2c(OC/C=C/c3ccccc3)c(c1)Cc1cc(C(C#N)(OC/C=C/c3ccccc3)OC/C=C/c3ccccc3)cc(c1OC/C=C\c1ccccc1)Cc1cc(C(C)(C)C)cc(c1OC/C=C/c1ccccc1)Cc1cc(C(C#N)(OC/C=C\c3ccccc3)OC/C=C/c3ccccc3)cc(c1OC/C=C\c1ccccc1)C2` (stereo not given), the TGI in the assay with OVCAR-8 ovarian, in the assay on NCI-H460 lung, with SW-620 colon, in the assay on NCI-H226 lung, with SK-MEL-5 melanoma and in the assay with EKVX NSCLC was greater than 100 µM in each case. For the same compound, the TGI in the assay with SF-295 CNS, in the assay on A549 NSCLC, in the assay on IGROV1 ovarian, with PC-3 prostate, with U251 CNS and with MDA-N was greater than 100 µM throughout. Moreover, the TGI in the assay on NCI-H522 lung, with MDA-MB-435, in the assay with K-562 leukemia and in the assay on MCF7 breast was greater than 100 µM in each case.

Regarding `COC(=O)[C@H](CCSC)NC(=O)N[C@H](C)c1ccccc1`, the TGI in the assay on OVCAR-8 ovarian, with NCI-H460 lung, in the assay on SW-620 colon, in the assay with NCI-H226 lung, in the assay on SK-MEL-5 melanoma and in the assay on EKVX NSCLC was greater than 100 µM throughout. Besides, the TGI in the assay on SF-295 CNS, with A549 NSCLC, in the assay on IGROV1 ovarian, in the assay on PC-3 prostate, in the assay with U251 CNS and with MDA-N was greater than 100 µM in each case. In addition, the TGI in the assay with NCI-H522 lung is 47.5 µM; in the assay with MDA-MB-435 it was greater than 100 µM; with K-562 leukemia, greater than 100 µM; in the assay with MCF7 breast, greater than 100 µM.

With `O=[N+]([O-])c1nccn1CCCNc1ccnc2cc(Cl)ccc12`, the TGI in the assay with OVCAR-8 ovarian was greater than 100 µM; in the assay with NCI-H460 lung it was greater than 12 µM; in the assay with SW-620 colon it was greater than 100 µM; with NCI-H226 lung, 10.8 µM; in the assay on SK-MEL-5 melanoma, 10.9 µM; with EKVX NSCLC it was greater than 100 µM. In addition, the TGI in the assay with SF-295 CNS, in the assay with A549 NSCLC, with IGROV1 ovarian, with PC-3 prostate, in the assay with U251 CNS and in the assay with MDA-N was greater than 100 µM each time. The TGI was 6.71 µM with NCI-H522 lung, greater than 100 µM in the assay on MDA-MB-435, greater than 100 µM in the assay on K-562 leukemia and greater than 100 µM in the assay on MCF7 breast.

With `O=C(CCCN1CCC2(CC1)CC(c1ccccc1)OC2=O)c1ccc(F)cc1` (stereo not given), the TGI in the assay on OVCAR-8 ovarian is greater than 100 µM; in the assay on NCI-H460 lung, greater than 100 µM; with SW-620 colon, greater than 100 µM; in the assay with NCI-H226 lung, greater than 100 µM; in the assay with SK-MEL-5 melanoma, 36.1 µM; with EKVX NSCLC, greater than 100 µM. The TGI was 60.9 µM in the assay on SF-295 CNS; greater than 100 µM in the assay on A549 NSCLC; greater than 100 µM in the assay with IGROV1 ovarian; greater than 100 µM in the assay with PC-3 prostate; greater than 100 µM in the assay on U251 CNS; greater than 100 µM in the assay with MDA-N. Also, the TGI in the assay on NCI-H522 lung was greater than 100 µM; with MDA-MB-435, greater than 100 µM; in the assay with K-562 leukemia it was 65.8 µM; with MCF7 breast it was greater than 100 µM.

For `CC1=NN(C(=O)c2ccncc2)C(=O)C1`, the TGI with OVCAR-8 ovarian, with NCI-H460 lung, in the assay with SW-620 colon, with NCI-H226 lung, with SK-MEL-5 melanoma and in the assay on EKVX NSCLC was greater than 100 µM each time. Besides, the TGI with SF-295 CNS, in the assay on A549 NSCLC, in the assay on IGROV1 ovarian, in the assay on PC-3 prostate, in the assay with U251 CNS and in the assay on MDA-N was greater than 100 µM in each case. Also, the TGI in the assay with NCI-H522 lung, with MDA-MB-435, with K-562 leukemia and in the assay on MCF7 breast was greater than 100 µM in each case.

In the case of `O=C1OCC2OC(=O)c3cc(O)c(O)c(O)c3-c3c(O)c(O)c(O)c4c3C(=O)OC(C2OC(=O)c2cc(O)c(O)c(O)c2-c2c1cc(O)c(O)c2O)C1OC(=O)c2c-4c(O)c(O)c(O)c2[C@@H]1C(O)C(O)C(O)C(O)CO` (stereo not given in full), the TGI was 44.1 µM in the assay with OVCAR-8 ovarian; 39.5 µM with NCI-H460 lung; 44.5 µM with SW-620 colon; 42.6 µM in the assay on NCI-H226 lung; 28 µM in the assay with SK-MEL-5 melanoma; 51.1 µM with EKVX NSCLC. Besides, the TGI in the assay with SF-295 CNS was 43.7 µM; in the assay on A549 NSCLC it was 43.7 µM; with IGROV1 ovarian it was 40.6 µM; in the assay with PC-3 prostate it was 42.7 µM; with U251 CNS, 48.7 µM; in the assay with MDA-N, 25.5 µM. The TGI in the assay on NCI-H522 lung was found to be 39.7 µM; with MDA-MB-435, 21.9 µM; in the assay on K-562 leukemia it was 33.3 µM; in the assay with MCF7 breast, 17.6 µM.

Consider `CCN1C(=O)c2cc(OC)c(OC)cc2C(=O)C12OC(=O)c1cc3c(cc12)OCO3` (stereo not given), for which the TGI with OVCAR-8 ovarian, in the assay on NCI-H460 lung, with SW-620 colon, with NCI-H226 lung, in the assay with SK-MEL-5 melanoma and in the assay on EKVX NSCLC was greater than 100 µM each time. For the same compound, the TGI in the assay on SF-295 CNS, in the assay on A549 NSCLC, in the assay on IGROV1 ovarian, in the assay on PC-3 prostate, with U251 CNS and in the assay on MDA-N was greater than 100 µM in each case. The TGI in the assay with NCI-H522 lung, in the assay on MDA-MB-435, in the assay with K-562 leukemia and with MCF7 breast was greater than 100 µM in each case.

As for `N#Cc1sc2c(c1OC(=O)c1ccccc1)c(=O)n(-c1ccccc1)c(=S)n2-c1ccccc1`, the TGI with OVCAR-8 ovarian is greater than 100 µM; in the assay with NCI-H460 lung it was greater than 100 µM; in the assay on SW-620 colon it was greater than 100 µM; in the assay on NCI-H226 lung, 40.8 µM; in the assay on SK-MEL-5 melanoma, 28.5 µM; in the assay on EKVX NSCLC it was 68.6 µM. The TGI in the assay with SF-295 CNS is 70.3 µM; with A549 NSCLC, greater than 100 µM; with IGROV1 ovarian, 45.7 µM; in the assay with PC-3 prostate, 66.6 µM; in the assay on U251 CNS, 53.3 µM; with MDA-N, 65.1 µM. For the same compound, the TGI was 29.8 µM with NCI-H522 lung, 67.9 µM in the assay on MDA-MB-435, greater than 100 µM in the assay with K-562 leukemia and 43.6 µM in the assay with MCF7 breast.

With `COC1=CC(=O)C2=C(C1=O)[C@H]1CC[C@]3(C)[C@@H](O)CC[C@H]3[C@@H]1CC2`, the TGI was 31.6 µM in the assay with OVCAR-8 ovarian; 35.8 µM in the assay on NCI-H460 lung; greater than 100 µM with SW-620 colon; 31.5 µM with NCI-H226 lung; 28.8 µM in the assay with SK-MEL-5 melanoma; 30.5 µM in the assay on EKVX NSCLC. Also, the TGI in the assay on SF-295 CNS worked out at 30.3 µM; with A549 NSCLC, 34.7 µM; in the assay on IGROV1 ovarian, 44.7 µM; with PC-3 prostate it was 30 µM; in the assay on U251 CNS, 31.3 µM; in the assay with MDA-N, 32.8 µM. The TGI in the assay on NCI-H522 lung was 31.8 µM; in the assay on MDA-MB-435 it was 33.3 µM; in the assay with K-562 leukemia, 83.8 µM; in the assay on MCF7 breast, 30.7 µM.

As for `CC(C)(C)OC(=O)N/N=C(/N)Cc1ccc(Cl)cc1`, the TGI in the assay on OVCAR-8 ovarian, with NCI-H460 lung, in the assay with SW-620 colon, with NCI-H226 lung, in the assay with SK-MEL-5 melanoma and with EKVX NSCLC was greater than 100 µM in each case. The TGI with SF-295 CNS, in the assay on A549 NSCLC, in the assay with IGROV1 ovarian, in the assay with PC-3 prostate, in the assay on U251 CNS and in the assay on MDA-N was greater than 100 µM throughout. Further, the TGI in the assay on NCI-H522 lung, in the assay on MDA-MB-435, in the assay on K-562 leukemia and in the assay with MCF7 breast was greater than 100 µM in each case.
